Reference: patent US8975406B2, “Compound useful for the treatment of degenerative and inflammatory diseases” (Galapagos N.V., priority 2011, dated 2015)
pKi: −log10 of the molar value.

Key:
[1] = tested on: rat CIA model; assay: Rat collagen induced arthritis (CIA) model; assay type: in vivo; conditions: dose of 0.1 mg/kg
Protocol: Completed Freund's adjuvant (CFA) and incomplete Freund's adjuvant (IFA) were purchased from Difco. Bovine collagen type II (CII), lipopolysaccharide (LPS), and Enbrel was obtained from Chondrex (Isle d'Abeau, France); Sigma (P4252, L′Isle d'Abeau, France), Whyett (25 mg injectable syringe, France) Acros Organics (Palo Alto, Calif.), respectively. All other reagents used were of reagent grade and all solvents were of analytical grade.
Dark Agouti rats (male, 7-8 weeks old) were obtained from Harlan Laboratories (Maison-Alfort, France). Rats were kept on a 12 hr light/dark cycle (0700-1900). Temperature was maintained at 22° C., and food and water were provided ad libitum.
One day before the experiment, CII solution (2 mg/mL) is prepared with 0.05 M acetic acid and stored at 4° C. Just before the immunization, equal volumes of adjuvant (IFA) and CII are mixed by a homogenizer in a pre-cooled glass bottle in an ice water bath. […]
Arthritis is scored according to the method of Khachigian 2006, Lin et al 2007 and Nishida et al. 2004). […]
The area under the curve (AUC) from day 1 to day 14 is calculated for each individual rat. The AUC of each animal is divided by the average AUC obtained for the vehicle in the study from which the data on that animal is obtained and multiplied by 100 (i.e. the AUC was expressed as a percentage of the average vehicle AUC per study). […]

[2] = target: T1, TYK2 (Homo sapiens, UniProt P29597); assay: TYK2 Ki determination assay; assay type: biochemical; conditions: Lineweaver-Burk plot, polyGT substrate, varying ATP
T1 construct: catalytic domain (amino acids 871-1187; catalog number 08-147); GST; purchased Carna Biosciences 08-147
T1 sequence (P29597 871-1187): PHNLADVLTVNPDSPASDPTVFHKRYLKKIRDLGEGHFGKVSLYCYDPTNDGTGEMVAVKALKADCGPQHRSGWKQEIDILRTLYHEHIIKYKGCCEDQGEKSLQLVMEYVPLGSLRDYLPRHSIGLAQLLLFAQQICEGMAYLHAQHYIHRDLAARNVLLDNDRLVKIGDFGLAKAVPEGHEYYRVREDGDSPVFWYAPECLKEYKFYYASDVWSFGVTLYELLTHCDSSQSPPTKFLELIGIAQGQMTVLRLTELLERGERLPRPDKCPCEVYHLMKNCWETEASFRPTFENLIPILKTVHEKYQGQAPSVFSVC
Protocol: For the determination of Ki, different amounts of compound are mixed with the enzyme and the enzymatic reaction is followed as a function of ATP concentration. The Ki is determined by means of double reciprocal plotting of Km vs compound concentration (Lineweaver-Burk plot). TYK2 (Carna Biosciences, 08-147) was used at a final concentration of 160 ng/ml. The substrate was Poly(Glu,Tyr)sodium salt (4:1), MW 20 000-50 000 (Sigma, P0275) The reaction was performed in 25 mM Hepes pH 7.2, 50 mM NaCl, 0.5 mM EDTA, 1 mM DTT, 5 mM MnCl2, 10 mM MgCl2, 0.1% Brij-35 with varying concentrations of ATP and compound and stopped by addition of 150 mM phosphoric acid. Measurement of incorporated phosphate into the substrate polyGT was done by loading the samples on a filter plate (using a harvester, Perkin Elmer) and subsequent washing. Incorporated ^33P in polyGT is measured in a Topcount scintillation counter after addition of scintillation liquid to the filter plates (Perkin Elmer).

## CC(=O)Nc1cc2c(-c3ccc(CN4CCN(S(C)(=O)=O)CC4)c(F)c3)cccn2n1 [Compound 21]
[1]
  normalized clinical score values (calculated as AUC or as the difference from day 1 to day 14): statistically significant improvements
[2]
  pKi: 6.87
